# Results reported in patent US20200138829A1, “METHODS OF CANCER TREATMENT” (Ferro Therapeutics, Inc., priority 2017, published 2020).
# pIC50: −log10 of the molar value. Structures can show the parent of a compound that is named as a salt. Where two headings read alike, the source gives them in different places. * marks the point of attachment. Cbz = O=C(OCc1ccccc1)*; CH2F = FC*
# How the values were obtained:
# A549 cells [1] = assay: Combination proliferation assay with PKC activator, A549; format: cell-based; details: inducer at concentration with minimal or no effect alone
# Method: (§1) Cell viability assay was performed to assess the potency of the ferroptosis inducer compounds in various cancer cell lines with K-Ras mutations. Cells at a density of 1,000-10,000 cells/well were seeded in 96-well plates and incubated at 37° C. overnight. A series of 9 different concentrations of compound stocks (500×) were created by 3-fold serial dilution in DMSO. These compounds were further diluted in culture media and then added to cells so that the final DMSO concentration was equal to 0.25% or less. After 96 hours of incubation, 50 μL of CellTiter Glo reagent (Promega) was added to each well and luminescence was measured after 10 minutes using EnVision (PerkinElmer). K101A (a PKC activator) was used as the reference compound titrated from top concentration of 30 μM. All compounds were tested initially from 30 μM as the top concentration in duplicates (range of 4.6 nM-30 μM). […] Data was analyzed using XL-fit software (ID Business Solutions Ltd.). IC50, relative IC50, or % of top inhibition was calculated.
# (§2) Therefore, whether PKC activators synergize or antagonize with ferroptosis inducers can be tested empirically.
# Panc2.13 cells [2] = assay: Combination proliferation assay with PKC activator, Panc2.13; format: cell-based
# Method: as §1, §2
# KP-4 cells [3] = assay: Combination proliferation assay with PKC activator, KP-4; format: cell-based
# Method: as §1, §2
# Capan-1 cells [4] = assay: Combination proliferation assay with PKC activator, Capan-1; format: cell-based
# Method: as §1, §2
# Namalwa cell line = assay: Combination proliferation assay with PKC activator, Namalwa; format: cell-based
# Method: as §1, §2
# (§3) Therefore, it is of interest to test combination treatment of both classes of compounds in lymphoma cells.
# Mino cell line = assay: Combination proliferation assay with PKC activator, Mino; format: cell-based
# Method: as §1, §2, §3
# Panc1 cells = assay: Combination proliferation assay with PKC activator, Panc1; format: cell-based
# Method: as §1, §2
# [5] = system: A549 lung cancer cell line; assay: Cell viability assay (CellTiter Glo), A549; format: cell-based
# Method: (§4) Cell viability assay was performed to assess the potency of the ferroptosis inducer compounds in various cancer cell lines with K-Ras mutations. […] A series of 9 different concentrations of compound stocks (500×) were created by 3-fold serial dilution in DMSO. […] After 96 hours of incubation, 50 μL of CellTiter Glo reagent (Promega) was added to each well and luminescence was measured after 10 minutes using EnVision (PerkinElmer). […] […] IC50, relative IC50, or % of top inhibition was calculated.
# [6] = system: KP-4 pancreatic cancer cell line; assay: Cell viability assay (CellTiter Glo), KP-4; format: cell-based; details: for selectivity for KP-4 over A549: KP-4 versus A549
# Method: as §4
# [7] = system: A549, MiaPaCa-2, and KP-4; assay: Cell viability assay, comparison across A549, MiaPaCa-2 and KP-4; format: cell-based; details: single agent
# Method: as §1
# KP-4 cells [8] = assay: Effect of ferroptosis or apoptosis inhibitor on RSL3- or Erastin-induced cell death, KP-4; details: KP-4; for effect on cell death induced by RSL3 or Erastin: co-treatment
# Method: as §1
# Ferroptosis inhibitors include: Ferrostatin-1 and Liproxstatin-1, inhibitors of ROS accumulation; Deferoxamine, an iron chelator; and PD146176, a 15-lipoxygenase inhibitor (see, e.g., Hofman et al., 2016, J Med Chem. March 10; 59(5):2041-53; Yang et al., 2016 Cell 26(3):165-176). The apoptosis inhibitor chosen was ZVAD (see, e.g. Wu et al., 2011, Cell Death and Differentiation 18:26-37). Ferroptosis inhibitors and ZVAD were first titrated as a single agent as shown in Example 1.
# PSN-1 cells [9] = assay: Combination proliferation assay with PKC activator, PSN-1; format: cell-based
# Method: as §1, §2
# Panc2.13 cells [10] = assay: Cell viability assay (CellTiter Glo), Panc2.13; format: cell-based; details: Panc2.13 versus A549
# Method: (§5) Cell viability assay was performed to assess the potency of the ferroptosis inducer compounds in various cancer cell lines with K-Ras mutations. […] A series of 9 different concentrations of compound stocks (500×) were created by 3-fold serial dilution in DMSO. […] After 96 hours of incubation, 50 μL of CellTiter Glo reagent (Promega) was added to each well and luminescence was measured after 10 minutes using EnVision (PerkinElmer). […] IC50, relative IC50, or % of top inhibition was calculated. Next, RSL3, ML210, Erastin, and Auranofin were tested on additional K-RAS mutant pancreatic cell lines (Panc1, Panc6.03, Panc2.13, PSN-1, and Capan-1) in Table 1.
# Capan-1 cells [11] = assay: Cell viability assay (CellTiter Glo), Capan-1; format: cell-based
# Method: as §5
# [12] = system: K-RAS mutant pancreatic cell lines; assay: Cell viability assay, several pancreatic cell lines compared with A549; format: cell-based; details: for potency in the pancreatic cell lines relative to A549 (in words): MiaPaCa-2 and KP-4 versus A549
# Method: as §5
# [13] = system: MiaPaCa-2 pancreatic cancer cell line; assay: Cell viability assay (CellTiter Glo), MiaPaCa-2; format: cell-based; details: Homo sapiens, MIA PaCa-2, 96 hours of incubation
# Method: as §4
# A549 cells [14] = assay: Effect of ferroptosis or apoptosis inhibitor on RSL3- or Erastin-induced cell death, A549; details: A549; ZVAD
# Method: as §1
# Ferroptosis inhibitors include: Ferrostatin-1 and Liproxstatin-1, inhibitors of ROS accumulation; Deferoxamine, an iron chelator; and PD146176, a 15-lipoxygenase inhibitor (see, e.g., Hofman et al., 2016, J Med Chem. March 10; 59(5):2041-53; Yang et al., 2016 Cell 26(3):165-176). […]
# PSN-1 cells [15] = assay: Cell viability assay (CellTiter Glo), PSN-1; format: cell-based; details: PSN-1; 96 hours of incubation
# Method: as §5
compound,measurement,setting,value
CC[P](CC)(CC)=[Au][S]C1OC(COC(C)=O)C(OC(C)=O)C(CC(C)=O)C1OC(C)=O (stereo not shown),synergy with K101A or K102 to block proliferation,A549 cells [1],No synergy
same,synergy with K101A or K102 to block proliferation,Panc2.13 cells [2],did not synergize
same,synergy when combined with K101A or K102,KP-4 cells [3],no synergy
same,synergy with K101A or K102 to block proliferation,Capan-1 cells [4],did not synergize
same,synergy when combined with K101A or K102,Namalwa cell line,minor synergy
same,synergy when combined with K101A or K102,Mino cell line,moderate synergy
same,synergy with K101A or K102 to block proliferation,Panc1 cells; inducer up to 1 μM,No synergistic effects
C=CCNc1nc(NCC=C)nc(N2CCN(C(c3ccc(F)cc3)c3ccc(F)cc3)CC2)n1 [Almitrine],potency of inhibition of A549 cells (in words),[5],very weak inhibitors
CN(C)c1nc(N(C)C)nc(N(C)C)n1 [Altretamine],potency of inhibition of A549 cells (in words),[5],very weak inhibitors
CO[C@H]1O[C@@H]2O[C@@]3(C)CC[C@H]4[C@H](C)CC[C@@H]([C@H]1C)[C@@]24OO3 [Artemether],selectivity for KP-4 over A549,[6],> 5 fold
C[C@H]1[C@H](OC(=O)CCC(=O)O)O[C@@H]2O[C@@]3(C)CC[C@H]4[C@H](C)CC[C@@H]1[C@@]24OO3 [Artesunate],synergy when combined with K101A or K102,KP-4 cells [3],moderate/minor synergy
CC(=O)N(O)CCCCCNC(=O)CCC(=O)N(O)CCCCCNC(=O)CCC(=O)N(O)CCCCCN [Deferoxamine mesylate],differential activity among three cell lines,[7],do not show differential activity
same,potency in blocking cell proliferation (in words),[7],not potent
same,effect on RSL3- or Erastin-induced cell death,KP-4 cells [8]; Deferoxamine,did not rescue
CCOC(=O)c1ccc(NC2CCCCC2)c(N)c1 [Ferrostatin-1],differential activity among three cell lines,[7],do not show differential activity
same,potency in blocking cell proliferation (in words),[7],not potent
same,effect on cell death induced by RSL3 or Erastin,KP-4 cells [8]; Ferrostatin-1 at 3 μM,completely abrogated cell death
"CC(=O)O[C@@]12C[C@@H](C)[C@@]3(O)[C@@H](C=C(CO)C[C@]4(O)C(=O)C(C)=C[C@@H]34)[C@@H]1C2(C)C [K101A, 12-deoxyphorbol 13-acetate]",% of top inhibition by K101A or K102 without ferroptosis inducer,Panc2.13 cells [2],~60%
"C/C=C(/C)C(=O)O[C@H]1C(C)=C[C@]23C(=O)[C@@H](C=C(CO)[C@@H](O)[C@]12O)[C@H]1[C@@H](C[C@H]3C)C1(C)C [K102, ingenol-3-angelate]",% of top inhibition by K101A or K102 without ferroptosis inducer,Panc2.13 cells [2],~60%
Clc1cccc(CN=C2Nc3ccccc3NC23CCNCC3)c1 [Liproxstatin-1],differential activity among three cell lines,[7],do not show differential activity
same,potency in blocking cell proliferation (in words),[7],not potent
same,effect on cell death induced by RSL3 or Erastin,KP-4 cells [8]; Liproxstatin-1 at 304,completely abrogated cell death
COc1ccc(N(C(=O)CCl)C(C(=O)NCCc2ccccc2)c2cccs2)cc1Cl (stereo not shown) [ML162],selectivity for KP-4 over A549,[6],> 80 fold
Cc1onc(C(=O)N2CCN(C(c3ccc(Cl)cc3)c3ccc(Cl)cc3)CC2)c1[N+](=O)[O-] [ML210],synergy with K101A or K102 to block proliferation,A549 cells [1],minor synergy
same,% of top inhibition by K101A or K102 in combination with the ferroptosis inducer,Panc2.13 cells [2],~80%
same,effect on the potency of K101A or K102,Panc2.13 cells [2],increased the potency
same,synergy with K101A or K102 to block proliferation,Panc2.13 cells [2],synergized
same,synergy when combined with K101A or K102,KP-4 cells [3],no synergy
same,synergy with K101A (PKC activators) to block proliferation,PSN-1 cells [9],synergized
same,selectivity in comparison to A549,Panc2.13 cells [10],no selectivity
same,% of top inhibition by K101A or K102 in combination with the ferroptosis inducer,Capan-1 cells [4],~80%
same,effect on the potency of K101A or K102,Capan-1 cells [4],increased the potency
same,synergy with K101A or K102 to block proliferation,Capan-1 cells [4],synergized strongly
same,synergy when combined with K101A or K102,Mino cell line,minor synergy
same,effect on the potency of K101A or K102,Panc1 cells,increasing the potency
same,synergy with K101A or K102 to block proliferation,Panc1 cells,synergized
same,selectivity in comparison to A549,Capan-1 cells [11]; Capan-1 versus A549,no selectivity
same,potency in the pancreatic cell lines relative to A549 (in words),[12],at least two orders of magnitude more potent
same,sensitivity in comparison to A549,"[12]; range over Panc1, Panc6.03, and PSN-1",8-30 fold
c1ccc2c(c1)SCc1c-2[nH]c2ccccc12 [PD146176],differential activity among three cell lines,[7],do not show differential activity
same,potency in blocking cell proliferation (in words),[7],not potent
same,effect on RSL3- or Erastin-induced cell death,KP-4 cells [8]; PD146176 at 0.504,partially reversed
COC(=O)c1ccc([C@H]2c3[nH]c4ccccc4c3C[C@H](C(=O)OC)N2C(=O)CCl)cc1 [RSL3],synergy with K101A or K102 to block proliferation,A549 cells [1],synergized strongly
same,% of top inhibition by K101A or K102 in combination with the ferroptosis inducer,Panc2.13 cells [2],~80%
same,effect on the potency of K101A or K102,Panc2.13 cells [2],increased the potency
same,synergy with K101A or K102 to block proliferation,Panc2.13 cells [2],synergized
same,pIC50,"[6]; Pancreatic cancer cell, KP-4, 96 hours of incubation",8.70
same,pIC50,"[5]; Homo sapiens, A549 lung cancer cell line, 96 hours of incubation",5.73
same,synergy when combined with K101A or K102,KP-4 cells [3],only additive effects
same,synergy with K101A (PKC activators) to block proliferation,PSN-1 cells [9],synergized
same,% of top inhibition by K101A or K102 in combination with the ferroptosis inducer,Capan-1 cells [4],~80%
same,effect on the potency of K101A or K102,Capan-1 cells [4],increased the potency
same,synergy with K101A or K102 to block proliferation,Capan-1 cells [4],synergized strongly
same,effect of addition to K101A or K102 on potency and % of top inhibition,Namalwa cell line,improved potency and % of top inhibition
same,effect on the potency of K101A or K102,Panc1 cells,increasing the potency
same,synergy with K101A or K102 to block proliferation,Panc1 cells,synergized
same,pIC50,[13],8.10
same,potency in the pancreatic cell lines relative to A549 (in words),[12],two to three orders of magnitude more potent
same,selective cell death in comparison to A549,"[12]; range over all five lines Panc1, Panc6.03, Panc2.13, PSN-1, Capan-1",2-26 fold
O=C(O)c1cc(/N=N/c2ccc(S(=O)(=O)Nc3ccccn3)cc2)ccc1O [Sulfasalazine],synergy with K101A or K102 to block proliferation,A549 cells [1],No synergy
same,synergy with K101A or K102 to block proliferation,Panc2.13 cells [2],did not synergize
Buthionine sulfoximine [BSO],effect on A549 cells,[5]; at very high concentration (>1 mM),minimal effects
Cbz-Val-Ala-Asp-CH2F,effect on RSL3- or Erastin-induced cell death,A549 cells [14],did not rescue
same,differential activity among three cell lines,[7],do not show differential activity
same,potency in blocking cell proliferation (in words),[7],not potent
same,effect on RSL3- or Erastin-induced cell death,KP-4 cells [8]; ZVAD at 30 μM,did not rescue
Dihydroartemisinin,synergy when combined with K101A or K102,KP-4 cells [3],moderate/minor synergy
same,pIC50,PSN-1 cells [15],6.27
same,synergy with K101A (PKC activators) to block proliferation,PSN-1 cells [9],no synergy
same,pIC50,"Capan-1 cells [11]; Capan-1, 96 hours of incubation",5.67
